Reference: patent US12139475B2, “2-oxindole compounds” (CHEMOCENTRYX, INC., priority 2016, dated 2024)

Biological target: T1, CCR(9) (Homo sapiens, UniProt P51686)
T1 construct: MOLT-4 cells were collected by centrifugation at 400×g at room temperature, then suspended at 50 million/ml in human serum; host or cells: MOLT-4
T1 sequence (P51686 1-369): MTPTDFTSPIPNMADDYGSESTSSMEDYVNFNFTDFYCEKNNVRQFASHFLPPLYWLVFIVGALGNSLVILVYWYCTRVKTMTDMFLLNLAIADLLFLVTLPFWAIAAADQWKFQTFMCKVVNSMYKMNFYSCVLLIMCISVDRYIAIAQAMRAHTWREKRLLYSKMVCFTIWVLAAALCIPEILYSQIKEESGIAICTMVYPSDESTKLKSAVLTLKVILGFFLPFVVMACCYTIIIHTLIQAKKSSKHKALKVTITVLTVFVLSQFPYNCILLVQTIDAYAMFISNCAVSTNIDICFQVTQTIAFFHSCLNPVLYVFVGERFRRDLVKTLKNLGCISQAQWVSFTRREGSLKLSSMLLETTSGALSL
Assay: Serum chemotaxis assay (MOLT-4 cells, TECK-induced migration, ChemoTX)
Assay type: cell-based
Details: MOLT-4 cells in human serum, migration to recombinant human TECK, 90 minutes at 37° C.
Experimental: MOLT-4 cells were obtained from the American Type Culture Collection (Manassas, VA) and cultured in RPMI tissue culture medium supplemented with 10% fetal calf serum (FCS) in a humidified 5% CO2 incubator at 37° C. Recombinant human chemokine proteins TECK was obtained from R&D Systems (Minneapolis, MN). ChemoTX™ chemotaxis microchambers were purchased from Neuro Probe (Gaithersburg, MD). CyQUANT™ cell proliferation kits were purchased from Molecular Probes (Eugene, Oregon). Calcium indicator dye Fluo-4 AM was purchased from Molecular Devices (Mountain View, CA).
A serum chemotaxis assay was used to determine the efficacy of potential receptor antagonists at blocking the migration mediated through chemokine receptors, such as CCR(9). This assay was performed using the ChemoTX® microchamber system with a 5-μm pore-sized polycarbonate membrane. MOLT-4 cells were collected by centrifugation at 400×g at room temperature, then suspended at 50 million/ml in human serum, containing 50 mM HEPES (final pH of 7.2). The compound being tested or an equivalent volume of its solvent (DMSO) was then added to the cell/serum mixture at a final DMSO concentration of 0.125% (v/v), and this mixture was then incubated together at 37° C. for one hour. Separately, recombinant human TECK was diluted with chemotaxis buffer (HBSS+0.1% BSA), generally spanning a range from 0.1 nM to 500 nM, after which 29 μl of diluted chemokine was placed in the lower wells of the ChemoTX® plate. The 5-μm (pore size) polycarbonate membrane was placed onto the plate, and 20 μL of the cell/compound mixture was transferred onto each well of the membrane. The plates were incubated at 37° C. for 90 minutes, after which the polycarbonate membranes were removed and 5 μl of the DNA-intercalating agent CyQUANT (Invitrogen, Carlsbad, CA) was added to the lower wells. The amount of fluorescence, corresponding to the number of migrated cells, was measured using a Spectrafluor Plus plate reader (TECAN, San Jose, CA).
The A2 values were calculated from the following equation, comparing the efficacy of the test compound with that of the DMSO-only control at equi-active chemokine levels: Log(A2)=log[drug(M)]−log[(A′/A)−1] where A reflects the potency of the agonist in the absence of antagonist and A′ reflects the potency of the agonist in the presence of antagonist at a given concentration of drug ([drug(M)]). In Vivo Efficacy Models for Human IBD

Cc1ccc2c(c1)N(c1ccc(C(=O)O)cc1)C(=O)C2(C)c1ccc(C(C)(C)C)cc1 (centres unmarked)
Chemotaxis A2: ++ (500 nM > A2 ≥ 100 nM)

CC(C)(C)c1ccc(C2(C)C(=O)N(c3ccc(C(=O)O)cc3)c3ccc(Cl)cc32)cc1 (centres unmarked)
Chemotaxis A2: +++ (100 nM > A2)

CC(C)(C)c1ccc(C2(C)C(=O)N(c3cccc(C(=O)O)c3)c3cc(Cl)ccc32)cc1 (centres unmarked)
Chemotaxis A2: ++ (500 nM > A2 ≥ 100 nM)

Cc1cc(C(C)(C)C)ccc1C1(C)C(=O)N(c2cccc(C(=O)O)c2)c2ccc(Cl)cc21 (centres unmarked)
Chemotaxis A2: +++ (100 nM > A2)

CC(C)Oc1ccc(C2(C)C(=O)N(c3cccc(C(=O)O)c3)c3ccc(Cl)cc32)cc1 (centres unmarked)
Chemotaxis A2: +++ (100 nM > A2)

CC(C)(C)c1ccc(C2(C)C(=O)N(c3cccc(C(=O)O)c3)c3c(Cl)cc(Cl)cc32)cc1 (centres unmarked)
Chemotaxis A2: + (20000 nM ≥ A2 ≥ 500 nM)

CC(C)(C)c1ccc(C2(C)C(=O)N(c3ccccc3C(=O)O)c3ccc(Cl)cc32)cc1 (centres unmarked)
Chemotaxis A2: ++ (500 nM > A2 ≥ 100 nM)

Cc1ccc2c(c1)C(C)(c1ccc(C(C)(C)C)c(F)c1)C(=O)N2c1cccc(C(=O)O)c1 (centres unmarked)
Chemotaxis A2: +++ (100 nM > A2)

CC(C)(C)c1ccc(C2(C)C(=O)N(c3cccc(C(=O)O)c3)c3cc(Cl)ccc32)cc1F (centres unmarked)
Chemotaxis A2: + (20000 nM ≥ A2 ≥ 500 nM)

CC(C)Oc1ccc(C2(C)C(=O)N(c3ccc(C(=O)O)cc3)c3ccc(Cl)cc32)cc1 (centres unmarked)
Chemotaxis A2: +++ (100 nM > A2)

CC(C)(C)c1ccc(C2(C)C(=O)N(c3ccc(C(=O)O)c(F)c3)c3ccc(Cl)cc32)cc1 (centres unmarked)
Chemotaxis A2: ++ (500 nM > A2 ≥ 100 nM)

CC(C)(C)c1ccc(C2(C)C(=O)N(c3cc(F)cc(C(=O)O)c3)c3ccc(Cl)cc32)cc1 (centres unmarked)
Chemotaxis A2: +++ (100 nM > A2)

Cc1ccc2c(c1)N(c1cccc(C(=O)O)c1)C(=O)C2(C)c1ccc(C(C)(C)C)c(F)c1 (centres unmarked)
Chemotaxis A2: ++ (500 nM > A2 ≥ 100 nM)

Cc1ccc2c(c1)N(c1cccc(C(=O)O)c1)C(=O)C2(C)c1ccc(C(C)(C)C)cc1 (centres unmarked)
Chemotaxis A2: ++ (500 nM > A2 ≥ 100 nM)

CC(C)(C)c1ccc(C2(C)C(=O)N(c3cc(C(=O)O)ccc3F)c3ccc(Cl)cc32)cc1 (centres unmarked)
Chemotaxis A2: ++ (500 nM > A2 ≥ 100 nM)

CC(C)(C)c1ccc(C2(C)C(=O)N(c3ccnc(C(=O)O)c3)c3ccc(Cl)cc32)cc1 (centres unmarked)
Chemotaxis A2: ++ (500 nM > A2 ≥ 100 nM)

CC(C)(C)c1ccc(C2(C)C(=O)N(c3cncc(C(=O)O)c3)c3ccc(Cl)cc32)cc1 (centres unmarked)
Chemotaxis A2: ++ (500 nM > A2 ≥ 100 nM)

CC(C)(C)c1ccc(C2(C)C(=O)N(c3cc(C(=O)O)ccn3)c3ccc(Cl)cc32)cc1 (centres unmarked)
Chemotaxis A2: +++ (100 nM > A2)

CC(C)(C)c1ccc(C2(C)C(=O)N(c3cccc(C(=O)O)n3)c3ccc(Cl)cc32)cc1 (centres unmarked)
Chemotaxis A2: ++ (500 nM > A2 ≥ 100 nM)

CC1(c2ccc(Cl)cc2)C(=O)N(c2cccc(C(=O)O)c2)c2ccc(Cl)cc21 (centres unmarked)
Chemotaxis A2: + (20000 nM ≥ A2 ≥ 500 nM)

COc1ccc(C2(C)C(=O)N(c3cccc(C(=O)O)c3)c3ccc(Cl)cc32)cc1F (centres unmarked)
Chemotaxis A2: + (20000 nM ≥ A2 ≥ 500 nM)

CC(C)(O)c1ccc(C2(C)C(=O)N(c3cccc(C(=O)O)c3)c3ccc(Cl)cc32)cc1 (centres unmarked)
Chemotaxis A2: ++ (500 nM > A2 ≥ 100 nM)

CC(C)(C)c1ccc(C2(C)C(=O)N(c3ccc(C(=O)O)cc3F)c3ccc(Cl)cc32)cc1 (centres unmarked)
Chemotaxis A2: ++ (500 nM > A2 ≥ 100 nM)

CC(C)(C)c1ccc(C2(C)C(=O)N(c3cccc(C(=O)O)c3F)c3ccc(Cl)cc32)cc1 (centres unmarked)
Chemotaxis A2: +++ (100 nM > A2)

CC(C)(F)c1ccc(C2(C)C(=O)N(c3cccc(C(=O)O)c3)c3ccc(Cl)cc32)cc1 (centres unmarked)
Chemotaxis A2: ++ (500 nM > A2 ≥ 100 nM)

CC1(c2ccc(C(C)(O)C(F)(F)F)cc2)C(=O)N(c2cccc(C(=O)O)c2)c2ccc(Cl)cc21 (centres unmarked)
Chemotaxis A2: ++ (500 nM > A2 ≥ 100 nM)

CC(C)(C)c1ccc(C2(C)C(=O)N(c3cccc(C(=O)O)c3)c3ccc(OC(F)(F)F)cc32)cc1 (centres unmarked)
Chemotaxis A2: +++ (100 nM > A2)

CC1(c2ccc(C3(C(F)(F)F)CC3)cc2)C(=O)N(c2cccc(C(=O)O)c2)c2ccc(Cl)cc21 (centres unmarked)
Chemotaxis A2: +++ (100 nM > A2)

CC1(c2ccc(C3(C#N)CC3)cc2)C(=O)N(c2cccc(C(=O)O)c2)c2ccc(Cl)cc21 (centres unmarked)
Chemotaxis A2: ++ (500 nM > A2 ≥ 100 nM)

CC1(c2ccc(C3(C)C(=O)N(c4cccc(C(=O)O)c4)c4ccc(Cl)cc43)cc2)CC1 (centres unmarked)
Chemotaxis A2: +++ (100 nM > A2)

Cc1cc(C2(C)C(=O)N(c3cccc(C(=O)O)c3)c3ccc(Cl)cc32)ccc1OC(C)C (centres unmarked)
Chemotaxis A2: ++ (500 nM > A2 ≥ 100 nM)

CC1(c2ccc(C(C)(C)C(C)(F)F)cc2)C(=O)N(c2cccc(C(=O)O)c2)c2ccc(Cl)cc21 (centres unmarked)
Chemotaxis A2: + (20000 nM ≥ A2 ≥ 500 nM)

CC1(C)CCc2cc(C3(C)C(=O)N(c4cccc(C(=O)O)c4)c4ccc(OC(F)(F)F)cc43)ccc2O1 (centres unmarked)
Chemotaxis A2: +++ (100 nM > A2)

CC1(C)CCc2cc(C3(C)C(=O)N(c4cccc(C(=O)O)c4)c4ccc(C#N)cc43)ccc2O1 (centres unmarked)
Chemotaxis A2: +++ (100 nM > A2)

CC1(C)CCc2cc(C3(C)C(=O)N(c4cccc(C(=O)O)c4)c4ccc(C5CC5)cc43)ccc2O1 (centres unmarked)
Chemotaxis A2: +++ (100 nM > A2)

CCc1ccc2c(c1)C(C)(c1ccc3c(c1)CCC(C)(C)O3)C(=O)N2c1cccc(C(=O)O)c1 (centres unmarked)
Chemotaxis A2: +++ (100 nM > A2)

CC1(C)Cc2cc(C3(C)C(=O)N(c4cccc(C(=O)O)c4)c4ccc(Cl)cc43)ccc2O1 (centres unmarked)
Chemotaxis A2: +++ (100 nM > A2)

Cc1cc(C2(C)C(=O)N(c3cccc(C(=O)O)c3)c3ccc(Cl)cc32)ccc1C(C)(C)C (centres unmarked)
Chemotaxis A2: ++ (500 nM > A2 ≥ 100 nM)

CC1(C)CCc2cc(C3(C)C(=O)N(c4cccc(C(=O)O)c4)c4cc(Cl)c(OC(F)(F)F)cc43)ccc2O1 (centres unmarked)
Chemotaxis A2: +++ (100 nM > A2)

CC1(C)CCc2cc(C3(C)C(=O)N(c4cccc(C(=O)O)c4)c4cc(Cl)c(Cl)cc43)ccc2O1 (centres unmarked)
Chemotaxis A2: +++ (100 nM > A2)

COc1ccc(C(=O)O)c(CN2C(=O)[C@@](C)(c3ccc4c(c3)CCC(C)(C)O4)c3cc(Cl)ccc32)c1
Chemotaxis A2: +++ (100 nM > A2)

CC1(C)CCc2cc([C@]3(C)C(=O)N(c4cc(C#N)cc(C(=O)O)c4)c4ccc(Cl)cc43)ccc2O1
Chemotaxis A2: ++ (500 nM > A2 ≥ 100 nM)

COc1c(C)cc(N2C(=O)[C@@](C)(c3ccc4c(c3)CCC(C)(C)O4)c3cc(Cl)ccc32)cc1C(=O)O
Chemotaxis A2: +++ (100 nM > A2)

CC1(C)CCc2cc(C3(C)C(=O)N(c4ccc(CC(=O)O)cc4)c4ccc(Cl)cc43)ccc2O1 (stereo in doubt) [2-[4-[(3R)-5-chloro-3-(2,2-dimethylchroman-6-yl)-3-methyl-2-oxo-indolin-1-yl]phenyl]acetic acid]
Chemotaxis A2: +++ (100 nM > A2)

CC(C)(C)c1ccc(C2(C)C(=O)N(c3cccc(C(=O)O)c3)c3ccc(Cl)cc32)cc1 (stereo in doubt) [3-[(3R)-3-(4-tert-butylphenyl)-5-chloro-3-methyl-2-oxo-indolin-1-yl]benzoic acid]
Chemotaxis A2: +++ (100 nM > A2)

CC1(C)CCc2cc(C3(C)C(=O)N(c4cccc(C(=O)O)c4)c4ccc(Cl)cc43)ccc2O1 (stereo in doubt) [3-[(3R)-5-chloro-3-(2,2-dimethylchroman-6-yl)-3-methyl-2-oxo-indolin-1-yl]benzoic acid]
Chemotaxis A2: +++ (100 nM > A2)

CC1(C)CCc2cc(C3(C)C(=O)N(Cc4ccc(C(=O)O)cc4)c4ccc(Cl)cc43)ccc2O1 (stereo in doubt) [4-[[(3R)-5-chloro-3-(2,2-dimethylchroman-6-yl)-3-methyl-2-oxo-indolin-1-yl]methyl]benzoic acid]
Chemotaxis A2: +++ (100 nM > A2)
